Measured values from PubChem BioAssay AID248 (DTP/NCI, 2004).
Where “and” joins values, the source holds several entries; their conditions need not be identical. Equal values may be shown once. Inconclusive results and toxic doses are left out.

Test system: L1210 leukemia ip in BDF1 mice, survival T/C
Experiment: NCI In Vivo Anticancer Drug Screen. Data for tumor model L1210 Leukemia (intraperitoneal) in B6D2F1 (BDF1) mice
Settings: endpoint: mean survival time, higher = longer survival
How it was run: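 Value reflects the ratio of survival in compound-treated mice to survival in vehicle-treated controls, with both groups carrying the same transplanted tumor.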

[1] = dose: 100.0 mg/kg/injection, schedule: Q04DX003 (ip), vehicle: saline with Tween-80
[2] = dose: 200.0 mg/kg/injection, schedule: Q04DX003 (ip), vehicle: saline with Tween-80
[3] = dose: 400.0 mg/kg/injection, schedule: Q04DX003 (ip), vehicle: saline with Tween-80
[4] = dose: 50.0 mg/kg/injection, schedule: Q01DX009 (ip), vehicle: saline
[5] = dose: 100.0 mg/kg/injection, schedule: Q04DX003 (ip), vehicle: saline
[6] = dose: 100.0 mg/kg/injection, schedule: Q01DX009 (ip), vehicle: saline
[7] = dose: 200.0 mg/kg/injection, schedule: Q01DX009 (ip), vehicle: saline
[8] = dose: 100.0 mg/kg/injection, schedule: Q01DX001 (ip), vehicle: saline
[9] = dose: 200.0 mg/kg/injection, schedule: Q01DX001 (ip), vehicle: saline

## Nc1nc(N)c2nc(CNc3ccc(C(=O)NC(CCCCC(=O)O)C(=O)O)cc3)cnc2n1 (centres undefined)
dose: 20.0 mg/kg/injection, schedule: Q01DX009 (ip), vehicle: sodium bicarbonate
  T/C: 157 % of control

## COc1cc(I)cc(OC)c1OC
[1]
  T/C: 97 % of control
[2]
  T/C: 94 % of control
[3]
  T/C: 100 % of control

## CC12C(=O)N(C3CCC(=O)NC3=O)C(=O)C1C1CCC2C1 (centres undefined)
[1]
  T/C: 96 % of control

## CC(C)OCc1c(N)nc(=S)[nH]c1C(=O)O
dose: 12.0 mg/kg/injection, schedule: Q01DX009 (ip), vehicle: saline
  T/C: 90 % of control
dose: 25.0 mg/kg/injection, schedule: Q01DX009 (ip), vehicle: saline
  T/C: 97 % of control
dose: 25.0 mg/kg/injection, schedule: Q04DX003 (ip), vehicle: saline
  T/C: 106 % of control
[4]
  T/C: 103 % of control and 92 % of control
dose: 50.0 mg/kg/injection, schedule: Q04DX003 (ip), vehicle: saline
  T/C: 97 % of control
[5]
  T/C: 102 % of control and 90 % of control

## N/C(=N/N=C/c1ccc(O)cc1)N[N+](=O)[O-]
dose: 100.0 mg/kg/injection, schedule: Q01DX009 (ip), vehicle: saline with Tween-80
  T/C: 105 % of control
dose: 200.0 mg/kg/injection, schedule: Q01DX009 (ip), vehicle: saline with Tween-80
  T/C: 89 % of control
dose: 400.0 mg/kg/injection, schedule: Q01DX009 (ip), vehicle: saline with Tween-80
  T/C: 90 % of control

## CC(C)COCCCN
dose: 10.0 mg/kg/injection, schedule: Q01DX009 (ip), vehicle: saline
  T/C: 95 % of control
[4]
  T/C: 95 % of control

## CCCCCCCCCCCCCCSCCCCCCSCCCCCCCCCCCCCC
dose: 100.0 mg/kg/injection, schedule: Q01DX001 (ip), vehicle: Klucel (hydroxypropylcellulose) (HPC)
  T/C: 98 % of control
dose: 200.0 mg/kg/injection, schedule: Q01DX001 (ip), vehicle: Klucel (hydroxypropylcellulose) (HPC)
  T/C: 93 % of control
dose: 400.0 mg/kg/injection, schedule: Q01DX001 (ip), vehicle: Klucel (hydroxypropylcellulose) (HPC)
  T/C: 94 % of control

## Cc1ccnc(NS(=O)(=O)c2ccc(N=NC3SC(=S)NC3=O)cc2)n1 (centres undefined)
dose: 75.0 mg/kg/injection, schedule: Q01DX001 (ip), vehicle: saline
  T/C: 100 % of control
dose: 150.0 mg/kg/injection, schedule: Q01DX001 (ip), vehicle: saline
  T/C: 101 % of control
dose: 300.0 mg/kg/injection, schedule: Q01DX001 (ip), vehicle: saline
  T/C: 98 % of control

## O=C(/C=C/c1ccccn1)c1ccccc1O
dose: 12.5 mg/kg/injection, schedule: Q04DX003 (ip), vehicle: saline with Tween-80
  T/C: 92 % of control
dose: 25.0 mg/kg/injection, schedule: Q04DX003 (ip), vehicle: saline with Tween-80
  T/C: 100 % of control
dose: 50.0 mg/kg/injection, schedule: Q04DX003 (ip), vehicle: saline with Tween-80
  T/C: 92 % of control

## CC1(C)OCC(C2OC(=O)C(O)=C2O)O1 (centres undefined)
[4]
  T/C: 111 % of control
[6]
  T/C: 92 % of control
[7]
  T/C: 101 % of control

## Cc1ccc(-c2ccc(C)cc2[N+](=O)[O-])cc1
dose: 100.0 mg/kg/injection, schedule: Q01DX001 (ip), vehicle: carboxymethylcellulose (CMC)
  T/C: 91 % of control
dose: 200.0 mg/kg/injection, schedule: Q01DX001 (ip), vehicle: carboxymethylcellulose (CMC)
  T/C: 100 % of control
dose: 400.0 mg/kg/injection, schedule: Q01DX001 (ip), vehicle: carboxymethylcellulose (CMC)
  T/C: 102 % of control

## CCOC(=O)C(Cc1ccc(O)c(N(CCO)CCO)c1)N1C(=O)c2ccccc2C1=O (centres undefined)
[8]
  T/C: 101 % of control
[9]
  T/C: 112 % of control

## O=S(=O)(O)CC1(CS(=O)(=O)O)COC1
[8]
  T/C: 95 % of control
dose: 100.0 mg/kg/injection, schedule: Q01DX009 (ip), vehicle: acetone
  T/C: 118 % of control
[9]
  T/C: 95 % of control
dose: 200.0 mg/kg/injection, schedule: Q01DX009 (ip), vehicle: acetone
  T/C: 106 % of control
dose: 400.0 mg/kg/injection, schedule: Q01DX001 (ip), vehicle: saline
  T/C: 96 % of control
dose: 400.0 mg/kg/injection, schedule: Q01DX009 (ip), vehicle: acetone
  T/C: 95 % of control

## CCOC(=O)/C=C(\C)Nc1ccc(NC(C)=O)cc1
dose: 50.0 mg/kg/injection, schedule: Q01DX009 (ip), vehicle: water
  T/C: 107 % of control
dose: 100.0 mg/kg/injection, schedule: Q01DX009 (ip), vehicle: water
  T/C: 121 % of control
dose: 100.0 mg/kg/injection, schedule: Q04DX003 (ip), vehicle: water
  T/C: 96 % of control
dose: 200.0 mg/kg/injection, schedule: Q01DX009 (ip), vehicle: water
  T/C: 98 % of control
dose: 200.0 mg/kg/injection, schedule: Q04DX003 (ip), vehicle: water
  T/C: 96 % of control
dose: 400.0 mg/kg/injection, schedule: Q01DX009 (ip), vehicle: water
  T/C: 100 % of control
dose: 400.0 mg/kg/injection, schedule: Q04DX003 (ip), vehicle: water
  T/C: 101 % of control

## Cc1cc(-c2ccc(NS(=O)(=O)c3ccccc3)c(C)c2)ccc1NS(=O)(=O)c1ccccc1
dose: 25.0 mg/kg/injection, schedule: Q01DX001 (ip), vehicle: saline with Tween-80
  T/C: 95 % of control
dose: 50.0 mg/kg/injection, schedule: Q01DX001 (ip), vehicle: saline with Tween-80
  T/C: 98 % of control
dose: 100.0 mg/kg/injection, schedule: Q01DX001 (ip), vehicle: saline with Tween-80
  T/C: 92 % of control and 104 % of control
dose: 200.0 mg/kg/injection, schedule: Q01DX001 (ip), vehicle: saline with Tween-80
  T/C: 89 % of control

## CC(=O)CCCCC(=O)O
[6]
  T/C: 111 % of control
[5]
  T/C: 96 % of control
[7]
  T/C: 89 % of control
dose: 200.0 mg/kg/injection, schedule: Q04DX003 (ip), vehicle: saline
  T/C: 93 % of control
dose: 400.0 mg/kg/injection, schedule: Q01DX009 (ip), vehicle: saline
  T/C: 94 % of control
dose: 400.0 mg/kg/injection, schedule: Q04DX003 (ip), vehicle: saline
  T/C: 100 % of control

## c1ccc(NCc2ccco2)cc1
[1]
  T/C: 106 % of control
[2]
  T/C: 98 % of control
[3]
  T/C: 106 % of control

## CCN(CC)CCCN(C)C(=O)C(O)(c1ccccc1)c1ccccc1
dose: 25.0 mg/kg/injection, schedule: Q01DX001 (ip), vehicle: saline
  T/C: 102 % of control
dose: 50.0 mg/kg/injection, schedule: Q01DX001 (ip), vehicle: saline
  T/C: 97 % of control
[8]
  T/C: 102 % of control

## O=C(O)C1(C(=O)O)CC2CC=CCC2C1 (centres undefined)
dose: 100.0 mg/kg/injection, schedule: Q01DX001 (ip), vehicle: acetone
  T/C: 97 % of control
dose: 100.0 mg/kg/injection, schedule: Q04DX003 (ip), vehicle: acetone
  T/C: 100 % of control
dose: 200.0 mg/kg/injection, schedule: Q01DX001 (ip), vehicle: acetone
  T/C: 101 % of control
dose: 200.0 mg/kg/injection, schedule: Q04DX003 (ip), vehicle: acetone
  T/C: 104 % of control
dose: 400.0 mg/kg/injection, schedule: Q01DX001 (ip), vehicle: acetone
  T/C: 95 % of control
dose: 400.0 mg/kg/injection, schedule: Q04DX003 (ip), vehicle: acetone
  T/C: 98 % of control

## O=C(O)C1CC12c1ccccc1-c1ccccc12 (centres undefined)
[8]
  T/C: 92 % of control
[9]
  T/C: 95 % of control

## N#CCCN(Cc1cccnc1)CN1C(=O)c2ccccc2C1=O
dose: 100.0 mg/kg/injection, schedule: Q04DX002 (ip), vehicle: saline with Tween-80
  T/C: 91 % of control
dose: 200.0 mg/kg/injection, schedule: Q04DX002 (ip), vehicle: saline with Tween-80
  T/C: 97 % of control
dose: 400.0 mg/kg/injection, schedule: Q04DX002 (ip), vehicle: saline with Tween-80
  T/C: 102 % of control
